Earlier results in patent US8211048B2 (Henry Ford Health System, priority 2006, dated 2012).
Read-outs that look alike come from different tables or passages of the source.

## O=C(O)CC(O)(CC(=O)O)C(=O)O [Citrate]
25 C
  pKa2: 4.76
  pKa3: 6.40
As given for pre-filter fluid pH
  pKa3: 6.3
